Test results published in ChEMBL document CHEMBL1201862, “PubChem BioAssay data set” (2004).
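These data come from cells grown in 96-well plates and exposed to compound for 48 hours at five concentrations. The concentration for 50% growth inhibition is given as GI50.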 Calls of active or inactive are those of the source. Rule as the data show it: active = GI50 up to about 1.1 µM and inactive = higher.

Legend:
Experiment in all cases: NCI tumour cell line growth inhibition, 48 h
RPMI-8226 = tested on: RPMI-8226
KM12 = tested on: KM12
NCI-H23 = tested on: NCI-H23
NCI-H226 = tested on: NCI-H226
IGROV-1 = tested on: IGROV-1
UACC-257 = tested on: UACC-257
SN12C = tested on: SN12C
NCI-H522 = tested on: NCI-H522
MOLT-4 = tested on: MOLT-4
M14 = tested on: M14
U-251 = tested on: U-251
A549 = tested on: A549
OVCAR-5 = tested on: OVCAR-5
LXFL 529 = tested on: LXFL 529
LOX IMVI = tested on: LOX IMVI
SW-620 = tested on: SW-620
CAKI-1 = tested on: CAKI-1
ACHN = tested on: ACHN

Measured: GI50

COc1ccccc1NC(=O)CC(=O)NNCC(=O)Nc1nnc(-c2ccccc2)o1
inactive: RPMI-8226 > 100 µM | KM12 > 100 µM | NCI-H23 > 100 µM | NCI-H226 > 100 µM | IGROV-1 > 100 µM | UACC-257 > 100 µM | SN12C > 100 µM | NCI-H522 > 100 µM | MOLT-4 > 100 µM | M14 > 100 µM | U-251 > 100 µM | A549 > 100 µM | OVCAR-5 > 100 µM | LXFL 529 > 100 µM | LOX IMVI > 100 µM | SW-620 > 100 µM | CAKI-1 > 100 µM | ACHN > 100 µM

O=C(/C=C1/NC(=O)CS1)Nc1ccccc1
inactive: RPMI-8226 > 100 µM | KM12 > 100 µM | NCI-H23 > 100 µM | NCI-H226 > 100 µM | IGROV-1 > 100 µM | SN12C > 100 µM | NCI-H522 > 100 µM | MOLT-4 > 100 µM | M14 > 100 µM | U-251 > 100 µM | A549 > 100 µM | OVCAR-5 > 100 µM | LXFL 529 > 100 µM | LOX IMVI > 10 µM | SW-620 > 100 µM | CAKI-1 > 100 µM

Cc1ccccc1NC(=O)Cc1nc2ccccc2s1
inactive: KM12 16.7 µM | NCI-H23 14.7 µM | NCI-H226 18.9 µM | IGROV-1 > 10 µM | UACC-257 17.1 µM | SN12C 16.6 µM | NCI-H522 15.3 µM | MOLT-4 17.9 µM | M14 12.6 µM | U-251 11.8 µM | A549 16.6 µM | OVCAR-5 21.9 µM | LXFL 529 16.4 µM | LOX IMVI 16.7 µM | SW-620 19.8 µM | CAKI-1 17.7 µM | ACHN 15.4 µM

CCOc1ccc(NC(=O)CCC(=O)NN)cc1
inactive: RPMI-8226 > 100 µM | KM12 > 100 µM | NCI-H23 > 100 µM | NCI-H226 > 100 µM | UACC-257 > 100 µM | SN12C 94 µM | NCI-H522 > 100 µM | MOLT-4 > 100 µM | M14 > 100 µM | U-251 > 100 µM | A549 > 100 µM | OVCAR-5 > 100 µM | LXFL 529 > 100 µM | LOX IMVI > 100 µM | SW-620 > 100 µM | CAKI-1 > 100 µM | ACHN > 100 µM

COC(=O)c1ccc(C(=O)OC)c2nc3cc(C)ccc3nc12
inactive: RPMI-8226 > 100 µM | KM12 > 100 µM | NCI-H23 > 100 µM | NCI-H226 51.1 µM | IGROV-1 > 100 µM | UACC-257 > 100 µM | SN12C > 100 µM | MOLT-4 > 100 µM | M14 > 100 µM | U-251 > 100 µM | A549 > 100 µM | OVCAR-5 > 100 µM | LXFL 529 > 100 µM | LOX IMVI > 100 µM | SW-620 > 100 µM | CAKI-1 > 100 µM | ACHN > 100 µM

CCOC(=O)C(=O)Nc1c(C)cccc1C(C)C
inactive: RPMI-8226 > 100 µM | KM12 > 100 µM | NCI-H23 > 100 µM | NCI-H226 > 100 µM | IGROV-1 > 100 µM | UACC-257 > 100 µM | SN12C > 100 µM | NCI-H522 > 100 µM | MOLT-4 > 100 µM | M14 > 100 µM | U-251 > 100 µM | A549 > 100 µM | OVCAR-5 > 100 µM | LXFL 529 > 100 µM | SW-620 > 100 µM | CAKI-1 > 100 µM | ACHN > 100 µM

COC(=O)/C(=N\NC(N)=O)C(C(=O)C=C(C)C)C(=O)C(=O)Nc1ccc(Cl)c(Cl)c1 (stereo not drawn)
inactive: KM12 > 100 µM | NCI-H23 > 100 µM | NCI-H226 > 100 µM | IGROV-1 > 100 µM | UACC-257 > 100 µM | SN12C > 100 µM | NCI-H522 > 100 µM | MOLT-4 > 100 µM | M14 > 100 µM | U-251 > 100 µM | A549 > 100 µM | OVCAR-5 > 100 µM | LXFL 529 > 100 µM | LOX IMVI > 100 µM | SW-620 > 100 µM | CAKI-1 > 100 µM | ACHN > 100 µM

CC(C)N1C(C)[C@@H](c2ccccc2)O[P@]1(=O)CC1=CCCCC1 (stereo partly drawn)
inactive: RPMI-8226 62.8 µM | KM12 > 100 µM | NCI-H23 82.8 µM | NCI-H226 > 100 µM | IGROV-1 > 100 µM | UACC-257 68.1 µM | SN12C > 100 µM | NCI-H522 97.5 µM | MOLT-4 44.3 µM | M14 97.5 µM | U-251 > 100 µM | A549 > 100 µM | OVCAR-5 88.5 µM | LXFL 529 92.5 µM | LOX IMVI 74.1 µM | SW-620 61.2 µM | ACHN > 100 µM

c1ccc2c(c1)Sc1ccccc1N2C1CN2CCC1CC2 (stereo not drawn)
inactive: RPMI-8226 23.1 µM | KM12 15.2 µM | NCI-H23 24.5 µM | NCI-H226 4.09 µM | IGROV-1 18.9 µM | UACC-257 15.5 µM | SN12C 14.2 µM | NCI-H522 18.8 µM | MOLT-4 12.8 µM | U-251 15.6 µM | A549 16.7 µM | OVCAR-5 > 10 µM | LXFL 529 16.9 µM | LOX IMVI 10.9 µM | SW-620 16.4 µM | CAKI-1 17.2 µM | ACHN 16.9 µM
